Results taken from patent publication EP1101496A1, “THERAPEUTIC AGENTS FOR ALLERGIC DISEASES” (FUJI YAKUHIN KOGYO KABUSHIKI KAISHA, priority 1998, dated 2000).

What was measured:
[1] = tested on: Type IV Allergic Dermatitis; test: Type IV allergic dermatitis (oxazolone-induced auricle edema); assay type: in vivo, Mice (male, Balb/c)
Procedure: Mice (male, Balb/c, 6 weeks old, 20 to 25 g) were sensitized by painting a 3% solution of oxazolone (100 µL) abdominally. Six days after sensitization, a 0.5% solution of oxazolone in acetone was painted on both sides of a right ear at a dose of 10 µL to raise auricle edema. An untreated group was painted with the solvent (acetone) alone onto both sides of a left ear of the same mouse at 10 µL. At 24 hours after edema-induction, each mouse was sacrificed with ether and an equivalent each of right and left auricles was stamped out with a puncher (diameter: 6 mm). Both left and right auricle sections were measure for their weight and each percent edema was calculated (Kazuo Ouchi (Ed.), "Seibutsu Yakukagaku Jikken Koza, Ensho To Allergy (Inflammation and Allergy) I-1", 1993, Hirokawa Publishing Co., Japan) Percent Edema (%) =((Right Auricular Segment Weight - Left Auricular Segment Weight))/(Left Auricular Segment Weight)× 100 [formula]
A solution of a test metalloproteinase inhibitor (Compound No. 8, 50 mg/mL) in ethanol was painted onto both sides of a right auricle at 10 µL per side twice, i.e., 0.5 hr prior to edema-induction and 6 hours after edema-induction. The solvent (ethanol) alone was painted on a left auricle at the same dose ([…]). […]

Allergic Rhinitis = test: Allergic rhinitis model (nasal airway resistance); assay type: in vivo, Guinea pigs; details: 15 mg/kg s.c. one hour prior to rhinitis-induction; 20 minutes after antigen-challenge
Procedure: Guinea pigs (male, Std:Hartley, 3 weeks old) were housed and fed in a aluminum cage at a rate of up to 5 animals per cage. After acclimatization for 1 week, the guinea pigs were administered intravenously with an anti-ovalbumin antibody (Nihon Bioresearch Inc., Hajima Institute; antibody titer by a 3-hour homologous passive cutaneous anaphylaxis reaction, 1 : 8192) prepared according to the Orange & Moore method (Orange, R. P. and Moore, E. G., The Journal of Immunology 116: p.392-397, 1976) into their auricle vein at a dose of 0.3 mL/animal for passive sensitization. Twenty four to twenty six hours after sensitization under conditions of fast and free access to drinking water, the sensitized guinea pigs were anesthetized with urethane (1.2 g/kg, intraperitoneal administration), fixed in a supine position, and mediad excised cervically to expose tracheas. […] Variations of the ventilatory overflow were quantitatively recorded on a recticoder (RECTI-HORIZ-8K, Nippon Denki Sanei K.K.) for 20 minutes after antigen-challenge.
Wave height (cm) was measured on recorded papers and a nasal airway resistance value was calculated according to the following formula: Percent Increase (%) in Nasal Airway Resistance =((Observed Value)-(Value prior to Administration))/((Complete Obstruction)-(Value prior to Administration))× 100 [formula] […]

[2] = tested on: Experimental Bronchial Asthma Model; test: Experimental bronchial asthma model (ovalbumin-sensitized, airway resistance and asthmatic death); assay type: in vivo, Guinea pigs
Procedure: Guinea pigs (female, Std:Hartley, 3 weeks old, 200 to 250 g) were individually housed in a plastic chamber (width, 200 mm; depth, 300 mm; height, 167 mm). Aqueous ovalbumin (10 mg/mL) was administered to the guinea pigs once a day for sensitization by 10 min. inhalation with a nebulizer (5B, Nippon Shoji K.K.: flow rate, 6 L/min.) at a dose of 10 mg/mL during 8 cosecutive days. On Day 7 after the final sensitization, the guinea pigs were housed in a plastic chamber and inhaled using a nebulizer with a solution of ovalbumin (10 mg/mL) in physiological saline for 1 min. for elicitation (Matsumoto, T., et al., The Journal of Pharmacology and Experimental Therapeutics, 269: 1236-1244, 1994). The number of animals employed in the experiment was set to the extent there are at least 6 as individuals escaping asthmatic death. A solution of a test metalloproteinase inhibitor (Compound No. 8, 15 mg/kg) in water for injection was administered subcutaneously twice, i.e., 24 hours and 2 hours prior to elicitation. Similarly, the solvent alone was also administered to a negative control group. A suspension of prednisolone (10 mg/kg) in 0.5% aqueous methyl cellulose was administered orally twice, i.e., 24 hours and 2 hours prior to elicitation. Similarly, the solvent alone was also administered to another control group.
The evaluation for efficacies was conducted in terms of airway resistance. For this purpose, an apparatus dedicated to the measurement of airway resistance (K.K. Medical Agent) was employed. Measurement includes setting a guinea pig in a test chamber under a not-anesthetized condition, applying sinusoidal pressure waves of 30 Hz components to a part below the neck of the animal from the back side of the chamber, measuring respiratory waves of 30 Hz components leaking through the mouth (volume of 30 Hz air flow passing through the respiratory tract) in front of the neck, and calculating airway resistance mechanically. Measurement was carried out immediately prior to the first drug treatment (24 hours before elicitation), just prior to elicitation, 10 minutes, 1, 2, 4, 6, and 8 hours post-elicitation.
It was visually observed by a person carrying out said test in terms of the appearance of cyanosis or suffocative death (asthmatic death) due to respiratory obstruction.
Guinea pigs were sensitized with ovalbumin and asthma was induced on Day 7 after final sensitization in the same manner as in Example 18. The number of animals employed in the experiment was set to the extent there are at least 6 as individuals escaping asthmatic death (8 to 11 animals/group). In the same manner as in Example 18, the animals were measured for airway resistance mechanically and each percent change (%) in airway resistance was calculated (each value just prior to elicitation was set as 100%). Each percent amelioration in airway resistance was calculated from the percent changes in airway resistance according to the following formula: Amelioration in Airway Resistance (%) = 1 -[((Percent Change in Airway Resistance after Drug-Administration)-(Value just prior to Challenge (100)))/((Percent Change in Airway Resistance after Solvent -Administration)-(Value just prior to Challenge (100)))]× 100 [formula]
A solution of a test metalloproteinase inhibitor (Compound No. 22: 15 mg/kg or 30 mg/kg) in water for injection or the solvent alone as a negative control was administered to each animal subcutaneously twice, i.e., 24 hours and 2 hours prior to elicitation.

[3] = Body weight gain in sensitized mice (experimental atopic dermatitis model); assay type: in vivo; details: painted on auricles twice a day; Compound No. 8 50 µg/ear/dose, prednisolone 5 µg/ear/dose; Days 1, 4 and 7; versus solvent control (ethanol)
Procedure: Experimental atopic dermatitis model mice sensitized in the same manner as in Example 1 were examined for influence on body weight gains.
A solution of a test metalloproteinase inhibitor (Compound No. 8; 50 µg/ear/dose, twice a day) in ethanol or a solution of prednisolone (5 µg/ear/dose, twice a day) in ethanol was administered to mice (5 animals per group) by painting onto both sides of a pair of the auricles, not only one hour prior to elicitation but also 0.25, 3, 4, 5 and 6 days post-elicitation. Each mouse was measured for its body weight not only immediately before the start in painting but also on Days 1, 4 and 7 after the start in painting. Each gain in body weight was calculated and considered to indicate an effect on body weight changes affected by said treatments.

[4] = suffocative death due to cyanosis just after elicitation, Compound No. 8 15 mg/kg s.c., prednisolone 10 mg/kg orally, 24 and 2 hours prior to elicitation

## CNC(=O)[C@H](Cc1ccc(NC(=N)N)cc1)NC(=O)[C@H](CC(C)C)C(CCCc1ccccc1)C(=O)NO (single isomer, unassigned) [Compound No. 8, N-[4-(N-hydroxyamino)-2(R)-isobutyl-3(R or S)-(3-phenyltrimethylene)succinyl]-L-4'-guanidophenylalanine-N-methylamide 1 acetate]
[1]; 50 mg/mL in ethanol, 10 µL per side painted on right auricle 0.5 hr prior to and 6 hours after edema-induction, 24 hours after induction
  therapeutic potency on the development of auricle edemas (FIG. 12): amelioration of auricle edemas
[1]; unsensitized mice, 50 mg/mL in ethanol painted on auricle
  effect of the compound alone on auricles (unsensitized group, FIG. 12): almost free of swelling and/or thinning
Allergic Rhinitis
  increase in nasal airway resistance due to antigen challenge (FIG. 14): markedly ameliorates an increase in nasal airway resistance
[2]; 15 mg/kg s.c. 24 hours and 2 hours prior to elicitation, IAR 1 hour and LAR 6 hours post-elicitation
  airway resistance (FIG. 11): significant reduction of the increased airway resistance
[2]; [4]
  % Mortality: 0.0%
  (Dead Animals)/(Tested Animals): 0/10
[3]
  gain in body weight (FIG. 9): almost equivalent to that in the solvent control group
